Test results taken from patent publication US20160297833A1, “THIENOPYRIMIDINES AS MKNK1 AND MKNK2 INHIBITORS” (BAYER PHARMA AKTIENGESELLSCHAFT, priority 2013, published 2016).

The compounds below were run against T1, human full-length MKNK1 (Homo sapiens, UniProt Q9BUB5, T385D) (assay: MKNK1 kinase high ATP assay (TR-FRET)). Conditions: Table 1; MKNK1 kinase high ATP assay, 2 mM ATP; read-out: MKNK1 IC50.
T1 construct: GST (N); purchased Carna Biosciences 02-145; host or cells: insect cells (baculovirus expression system)
Assay type: biochemical
Method: MKNK1 Kinase High ATP Assay
MKNK1-inhibitory activity at high ATP of compounds of the present invention after their preincubation with MKNK1 was quantified employing the TR-FRET-based MKNK1 high ATP assay as described in the following paragraphs.
As substrate for the kinase reaction the biotinylated peptide biotin-Ahx-[…] (C-terminus in amide form) was used, which can be purchased e.g. from the company Biosyntan (Berlin-Buch, Germany).
For the assay 50 nL of a 100 fold concentrated solution of the test compound in DMSO was pipetted into a black low volume 384 well microtiter plate (Greiner Bio-One, Frickenhausen, Germany), 2 μL of a solution of MKNK1 in aqueous assay buffer [50 mM HEPES pH 7.5, 5 mM MgCl2, 1.0 mM dithiothreitol, 0.005% (v/v) Nonidet-P40 (Sigma)] was added and the mixture was incubated for 15 min at 22° C. to allow pre-binding of the test compounds to the enzyme before the start of the kinase reaction. Then the kinase reaction was started by the addition of 3 μL of a solution of adenosine-tri-phosphate (ATP, 3.3 mM=>final conc. in the 5 μL assay volume is 2 mM) and substrate (0.1 μM=>final conc. in the 5 μL assay volume is 0.06 μM) in assay buffer and the resulting mixture was incubated for a reaction time of 30 min at 22° C. The concentration of MKNK1 was adjusted depending of the activity of the enzyme lot and was chosen appropriate to have the assay in the linear range, typical concentrations were in the range of 0.003 μg/mL. The reaction was stopped by the addition of 5 μL of a solution of TR-FRET detection reagents (5 nM streptavidine-XL665 [Cisbio Bioassays, Codolet, France] and 1 nM anti-ribosomal protein S6 (pSer236)-antibody from Invitrogen [#44921G] and 1 nM LANCE EU-W1024 labeled ProteinG [Perkin-Elmer, product no. AD0071]) in an aqueous EDTA-solution (100 mM EDTA, 0.1% (w/v) bovine serum albumin in 50 mM HEPES pH 7.5).
The resulting mixture was incubated for 1 h at 22° C. to allow the formation of complex between the phosphorylated biotinylated peptide and the detection reagents. Subsequently the amount of phosphorylated substrate was evaluated by measurement of the resonance energy transfer from the Eu-chelate to the streptavidine-XL. Therefore, the fluorescence emissions at 620 nm and 665 nm after excitation at 350 nm were measured in a TR-FRET reader, e.g. a Rubystar (BMG Labtechnologies, Offenburg, Germany) or a Viewlux (Perkin-Elmer). The ratio of the emissions at 665 nm and at 622 nm was taken as the measure for the amount of phosphorylated substrate.

T1 sequence (Q9BUB5 1-424 isoform Q9BUB5-2 T344D): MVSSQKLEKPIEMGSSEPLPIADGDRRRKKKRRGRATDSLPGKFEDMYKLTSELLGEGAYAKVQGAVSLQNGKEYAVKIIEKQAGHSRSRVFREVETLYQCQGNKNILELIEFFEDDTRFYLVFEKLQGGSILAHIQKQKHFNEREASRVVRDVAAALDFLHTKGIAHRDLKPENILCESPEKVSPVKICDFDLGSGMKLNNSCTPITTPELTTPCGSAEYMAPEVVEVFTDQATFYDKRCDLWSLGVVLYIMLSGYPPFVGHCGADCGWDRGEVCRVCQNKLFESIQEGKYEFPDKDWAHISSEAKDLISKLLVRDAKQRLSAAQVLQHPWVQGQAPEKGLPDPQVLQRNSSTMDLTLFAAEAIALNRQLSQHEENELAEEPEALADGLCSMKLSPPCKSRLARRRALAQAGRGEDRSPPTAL

First: COc1cc2[nH]ncc2cc1Nc1ncnc2sc3c(c12)CC[C@H](C(=O)N1CC[C@H](N(C)C)C1)C3 [Example 45, [(3S)-3-(Dimethylamino)pyrrolidin-1-yl]{(7S)-4-[(6-methoxy-1H-indazol-5-yl)amino]-5,6,7,8-tetrahydro[1]benzothieno[2,3-d]pyrimidin-7-yl}methanone]
Second: COc1cc2[nH]ncc2cc1Nc1ncnc2sc3c(c12)CC[C@H](C(=O)N1CCC(N(C)C)CC1)C3 [Example 46, [4-(Dimethylamino)piperidin-1-yl]{(7S)-4-[(6-methoxy-1H-indazol-5-yl)amino]-5,6,7,8-tetrahydro[1]benzothieno[2,3-d]pyrimidin-7-yl}methanone]
The IC50 of the first is 2-fold higher: 0.2 nM for the first, 0.1 nM for the second.

Going from `COc1cc2[nH]ncc2cc1Nc1ncnc2sc3c(c12)CC[C@H](C(=O)N1CCC(N(C)CCN(C)C)CC1)C3` [Example 47, (4-{[2-(Dimethylamino)ethyl](methyl)amino}piperidin-1-yl){(7S)-4-[(6-methoxy-1H-indazol-5-yl)amino]-5,6,7,8-tetrahydro[1]benzothieno[2,3-d]pyrimidin-7-yl}methanone] to `COc1cc2[nH]ncc2cc1Nc1ncnc2sc3c(c12)CC[C@H](C(=O)N1CCN(CCN(C)C)CC1)C3` [Example 50, {4-[2-(Dimethylamino)ethyl]piperazin-1-yl}{(7S)-4-[(6-methoxy-1H-indazol-5-yl)amino]-5,6,7,8-tetrahydro[1]benzothieno[2,3-d]pyrimidin-7-yl}methanone], the IC50 falls from 0.5 nM to 0.1 nM (5-fold). The second is the more potent here.

Going from `COc1cc2[nH]ncc2cc1Nc1ncnc2sc3c(c12)CC[C@H](C(=O)N1CCN(C)CC1)C3` [Example 48, {(7S)-4-[(6-Methoxy-1H-indazol-5-yl)amino]-5,6,7,8-tetrahydro[1]benzothieno[2,3-d]pyrimidin-7-yl}(4-methylpiperazin-1-yl)methanone] to `COc1cc2[nH]ncc2cc1Nc1ncnc2sc3c(c12)CC[C@H](C(=O)N1CCN(C(=O)N(C)C)CC1)C3` [Example 49, 4-({(7S)-4-[(6-Methoxy-1H-indazol-5-yl)amino]-5,6,7,8-tetrahydro[1]benzothieno[2,3-d]pyrimidin-7-yl}carbonyl)-N,N-dimethylpiperazine-1-carboxamide], the IC50 falls from 0.4 nM to 0.1 nM (4-fold). The second is the more potent here.

Going from `COc1cc2[nH]ncc2cc1Nc1ncnc2sc3c(c12)CC[C@H](C(=O)N(C)CCN(C)C)C3` [Example 51, (7S)—N-[2-(Dimethylamino)ethyl]-4-[(6-methoxy-1H-indazol-5-yl)amino]-N-methyl-5,6,7,8-tetrahydro[1]benzothieno[2,3-d]pyrimidine-7-carboxamide] to `COc1cc2[nH]ncc2cc1Nc1ncnc2sc3c(c12)CC[C@H](C(=O)N(C)CCCN(C)C)C3` [Example 54, (7S)—N-[3-(Dimethylamino)propyl]-4-[(6-methoxy-1H-indazol-5-yl)amino]-N-methyl-5,6,7,8-tetrahydro[1]benzothieno[2,3-d]pyrimidine-7-carboxamide], the IC50 rises from 0.1 nM to 0.4 nM (4-fold). The first is the more potent here.

Compared with `COc1cc2[nH]ncc2cc1Nc1ncnc2sc3c(c12)CC[C@H](C(=O)N(C)CC(=O)N(C)C)C3` [Example 52, (7S)—N-[2-(Dimethylamino)-2-oxoethyl]-4-[(6-methoxy-1H-indazol-5-yl)amino]-N-methyl-5,6,7,8-tetrahydro[1]benzothieno[2,3-d]pyrimidine-7-carboxamide], `COc1cc2[nH]ncc2cc1Nc1ncnc2sc3c(c12)CC[C@H](C(=O)N(C)CCC(=O)N(C)C)C3` [Example 55, (7S)—N-[3-(Dimethylamino)-3-oxopropyl]-4-[(6-methoxy-1H-indazol-5-yl)amino]-N-methyl-5,6,7,8-tetrahydro[1]benzothieno[2,3-d]pyrimidine-7-carboxamide] is 2-fold lower in IC50: 0.2 nM for the first, 0.1 nM for the second. The second is the more potent here.

`CCN(CCN(C)C)C(=O)[C@H]1CCc2c(sc3ncnc(Nc4cc5cn[nH]c5cc4OC)c23)C1` [Example 53, (7S)—N-[2-(Dimethylamino)ethyl]-N-ethyl-4-[(6-methoxy-1H-indazol-5-yl)amino]-5,6,7,8-tetrahydro[1]benzothieno[2,3-d]pyrimidine-7-carboxamide] and `COc1cc2[nH]ncc2cc1Nc1ncnc2sc3c(c12)CC[C@H](C(=O)N(CCO)CCCN(C)C)C3` [Example 58, (7S)—N-[3-(Dimethylamino)propyl]-N-(2-hydroxyethyl)-4-[(6-methoxy-1H-indazol-5-yl)amino]-5,6,7,8-tetrahydro[1]benzothieno[2,3-d]pyrimidine-7-carboxamide] are the same in IC50: 0.3 nM for the first, 0.3 nM for the second.

First: COc1cc2[nH]ncc2cc1Nc1ncnc2sc3c(c12)CC[C@H](C(=O)N(CCC(=O)N(C)C)C1CC1)C3 [Example 56, (7S)—N-Cyclopropyl-N-[3-(dimethylamino)-3-oxopropyl]-4-[(6-methoxy-1H-indazol-5-yl)amino]-5,6,7,8-tetrahydro[1]benzothieno[2,3-d]pyrimidine-7-carboxamide]
Second: COc1cc2[nH]ncc2cc1Nc1ncnc2sc3c(c12)CC[C@H](C(=O)N(C)CCN(C)CCN(C)C)C3 [Example 57, (7S)—N-(2-{[2-(Dimethylamino)ethyl](methyl)amino}ethyl)-4-[(6-methoxy-1H-indazol-5-yl)amino]-N-methyl-5,6,7,8-tetrahydro[1]benzothieno[2,3-d]pyrimidine-7-carboxamide]
The IC50 of the first is 2.3-fold lower: 0.3 nM for the first, 0.7 nM for the second. The first is the more potent here.

`COc1cc2[nH]ncc2cc1Nc1ncnc2sc3c(c12)CC[C@H](C(=O)N(CCCN(C)C)CCCN(C)C)C3` [Example 59, (7S)—N,N-bis[3-(Dimethylamino)propyl]-4-[(6-methoxy-1H-indazol-5-yl)amino]-5,6,7,8-tetrahydro[1]benzothieno[2,3-d]pyrimidine-7-carboxamide] and `COc1cc2[nH]ncc2cc1Nc1ncnc2sc3c(c12)CC[C@H](C(=O)N(CCCN(C)C)Cc1ccccc1)C3` [Example 63, (7S)—N-Benzyl-N-[3-(dimethylamino)propyl]-4-[(6-methoxy-1H-indazol-5-yl)amino]-5,6,7,8-tetrahydro[1]benzothieno[2,3-d]pyrimidine-7-carboxamide] are the same in IC50: 0.2 nM for the first, 0.2 nM for the second.

First: COc1cc2[nH]ncc2cc1Nc1ncnc2sc3c(c12)CC[C@H](C(=O)N(CCN(C)C)Cc1ccccn1)C3 [Example 60, (7S)—N-[2-(Dimethylamino)ethyl]-4-[(6-methoxy-1H-indazol-5-yl)amino]-N-(pyridin-2-ylmethyl)-5,6,7,8-tetrahydro[1]benzothieno[2,3-d]pyrimidine-7-carboxamide]
Second: COc1cc2[nH]ncc2cc1Nc1ncnc2sc3c(c12)CC[C@H](C(=O)N(CCN(C)C)Cc1cccnc1)C3 [Example 61, (7S)—N-[2-(Dimethylamino)ethyl]-4-[(6-methoxy-1H-indazol-5-yl)amino]-N-(pyridin-3-ylmethyl)-5,6,7,8-tetrahydro[1]benzothieno[2,3-d]pyrimidine-7-carboxamide]
The IC50 of the first is 2-fold higher: 0.2 nM for the first, 0.1 nM for the second. The second is the more potent here.

Work on `COc1cc2[nH]ncc2cc1Nc1ncnc2sc3c(c12)CC[C@H](C(=O)N(CCN(C)C)Cc1ccncc1)C3` [Example 62, (7S)—N-[2-(Dimethylamino)ethyl]-4-[(6-methoxy-1H-indazol-5-yl)amino]-N-(pyridin-4-ylmethyl)-5,6,7,8-tetrahydro[1]benzothieno[2,3-d]pyrimidine-7-carboxamide] yielded an IC50 of 0.1 nM.
